Results: article PMC12700101 (2025)

Legend:
[1] = system: Dopamine MAB Cy3–Dab (DNA, aptamer, dabcyl-5-methyl-dC at 41 (3' end)) ACGCCAGTTTGAAGGTTCGTTCGCAGGTGTGGAGTGACGTC; assay: fluorescence melting; conditions: 1x PBS, 2 mM MgCl2; derived from two Tm (43.3 ± 1.0, 53.6 ± 0.3); 50 µM dopamine, pH 8.0
[2] = system: Dopamine MAB BHQ-1–FAM (DNA, aptamer) ACGCCAGTTTGAAGGTTCGTTCGCAGGTGTGGAGTGACGT; assay: fluorescence melting; conditions: 1x PBS, 2 mM MgCl2; derived from two Tm (40.0 ± 0.2, 37.3 ± 0.1); 50 µM dopamine, pH 8.0
[3] = system: Dopamine MAB Cy3–BHQ-2 (DNA, aptamer) ACGCCAGTTTGAAGGTTCGTTCGCAGGTGTGGAGTGACGT; assay: fluorescence melting; conditions: 1x PBS, 2 mM MgCl2; derived from two Tm (49.4 ± 0.8, 53.3 ± 0.8); 50 µM dopamine, pH 8.0
[4] = system: Dopamine DBS Cy3–BHQ-1 (Position 1/Adjacent) (DNA, aptamer) AAATACAACAAGAAAAAACTCTCGGGACGACGACCAGTTTGAAGGTTCGTTCGCAGGTGTGGAGTGACGTCGTCCC; assay: fluorescence strand-displacement titration; conditions: 1x PBS, 2 mM MgCl2; apparent; pH 8.0, 25 °C; displaced CGTCGTCCCCTCTTCACATATCTATTTTTTCTTGTTGTATTT, 4 eq, 5'-BHQ-1
[5] = system: Dopamine DBS FAM(+T)–IABkFQ (DNA, aptamer, 6-FAM-dT (azide click) at 33) AAATACAACAAGAAAAAACTCTCGGGACGACGTACCAGTTTGAAGGTTCGTTCGCAGGTGTGGAGTGACGTCGTCCC; assay: fluorescence strand-displacement titration; conditions: 1x PBS, 2 mM MgCl2; apparent; pH 8.0, 25 °C; displaced 42-nt 5'-IABkFQ strand, 4 eq
[6] = system: Dopamine DBS Cy3–BHQ-1 (Position 3) (DNA, aptamer) AAATACAACAAGAAAAAACTCTCGGGACGACGACCAGTTTGAAGGTTCGTTCGCAGGTGTGGAGTGACGTCGTCCC; assay: fluorescence strand-displacement titration; conditions: 1x PBS, 2 mM MgCl2; apparent; pH 8.0, 25 °C; displaced 42-nt strand, internal BHQ-1 (position 3), 4 eq
[7] = system: Dopamine MAB Cy3–BHQ-1 (DNA, aptamer) ACGCCAGTTTGAAGGTTCGTTCGCAGGTGTGGAGTGACGT; assay: fluorescence quenching titration (molecular aptamer beacon); conditions: 1x PBS, 2 mM MgCl2; apparent; pH 8.0, 25 °C
[8] = system: Dopamine MAB FAM–BHQ-1 (DNA, aptamer) ACGCCAGTTTGAAGGTTCGTTCGCAGGTGTGGAGTGACGT; assay: as above; conditions: 1x PBS, 2 mM MgCl2; apparent; pH 8.0, 25 °C

Tm [1]: 10.3 °C
Tm [2]: -2.7 °C
Tm [3]: 3.9 °C
Kd [4]: 229.9 ± 22.0 µM
Kd [5]: 19.6 ± 0.9 µM
Kd [6]: 2.3 ± 0.3 µM
Kd [7]: 53.8 ± 8.8 µM
Kd [8]: 3.0 ± 0.1 µM
Structure (SMILES): NCCc1ccc(O)c(O)c1
